Columns and labels:
E-selectin = test: Inhibition of E-selectin IgG chimera binding to sLex on microtiter wells; conditions: FIG. 6; E-selectin 50 ng/ml; sennoside B from 2 mM, serial 1/2 dilutions; sLex 25 pm/well
Description: (§1) The capacity of the multivalent anthraquinone derivative, Sennoside B, to inhibit selectin binding to sLex was tested essentially as described by Foxall, C., et al J. Cell Biol., vol. 117, pages 895-902 (1992) using selectin IgG chimeras.
(§2) The following assay procedure was used. sLex at 25 pm/well was evaporated onto microtiter wells in MeOH and H2 O overnight. The plates were washed with H2 O and blocked with 5% BSA in PBS with 1 mM Ca for 1 hour. L-selectin was diluted to 35 ng/ml in 1% BSA PBS with 1 mM Ca and 1:1500 biotinylated goat F(ab') anti-human IgG Fc (CalTag, corp.) and streptavidin-alkaline phosphatase. E-selectin at 50 ng/ml and P-selectin at 750 ng/ml were similarly diluted with 1:1000 dilutions of biotinylated goat F(ab') anti-human IgG Fc and streptavidin-alkaline phosphatase. These were allowed to complex for 15 minutes at 37° C.
(§3) Part of each selectin solution was made 2 mM with sennoside B (obtained from Pfaltz and Bauer, Inc., Waterbury, Conn.) The most concentrated solutions were diluted with the selectin solution to yield 3 solutions each 1/2 as concentrated as the previous. The solutions with selectin and inhibitor were incubated for 45 minutes at 37° C. […]
(§4) Binding is expressed as "% of No Addition Control." That is, in some wells, no inhibitor was present, and the binding in these wells represents the maximum (100%) binding.

L-selectin = test: Inhibition of L-selectin IgG chimera binding to sLex on microtiter wells; conditions: FIG. 7; L-selectin 35 ng/ml; sennoside B from 2 mM, serial 1/2 dilutions; sLex 25 pm/well
Description: as §1, §2, §3, §4

P-selectin = test: Inhibition of P-selectin IgG chimera binding to sLex on microtiter wells; conditions: FIG. 8; P-selectin 750 ng/ml; sennoside B from 2 mM, serial 1/2 dilutions; sLex 25 pm/well
Description: as §1, §2, §3, §4

O=C(O)c1cc(O)c2c(c1)[C@@H]([C@H]1c3cc(C(=O)O)cc(O)c3C(=O)c3c(O[C@@H]4O[C@H](CO)[C@@H](O)[C@H](O)[C@H]4O)cccc31)c1cccc(O[C@@H]3O[C@H](CO)[C@@H](O)[C@H](O)[C@H]3O)c1C2=O [Sennoside B]
E-selectin binding to sLex (expressed as % of No Addition Control) (E-selectin): inhibited
L-selectin binding to sLex (expressed as % of No Addition Control) (L-selectin): inhibited
P-selectin binding to sLex (expressed as % of No Addition Control) (P-selectin): most inhibited
